In one assay the test system is Peritoneal cavity cells. In words: Inhibitory effect on histamine release from sensitized peritoneal cavity cells. The format is cell-based, rat (Wistar-strain). As to conditions: for inhibition at 100 µM / inhibition at 50 µM: read-out: Inhibitory effect on histamine release; for inhibition at 200 µM: 0.2 mM. Here is the method: The inhibitory effect on histamine release of the compounds according to the present invention was investigated as follows. […] These cells were suspended in a phosphoric acid buffer solution (containing 0.1% of gelatin) and each 0.5 ml portion of this suspension was taken in a polyethylene tube. 1 ml each of solutions of various concentrations of test compound and 0.5 ml of 200 μg/ml of ovalbumin solution were added therein. They were incubated for 20 minutes at 37° C. to measure the histamine release rate. The amount of histamine was measured by a modified Shore method using fluorescence.

The test system of another assay is SRS-A. Nature of the assay: Anti-SRS-A effect on guinea pig's ileum (Magnus method). How it is done: The anti-SRS-A effect of the compounds according to the present invention on guinea pig's ileum was measured by Magnus method. […] One minute thereafter, the ileum contraction inhibiting rate (%) was measured with use of 1 ml of 80% ethanol solution of SRS-A (150 mg/ml).

Where [1] appears, read: Rattus norvegicus, 0.05 mM, average ± S.E. of 3 or 4 experiments.

Structures can show the parent of a compound that is named as a salt. Where two headings read alike, the source gives them in different places.

In the case of `CC(CN1CCCCC1)C(=O)c1ccc2c(c1)CCCC2` (stereo not shown) [Example 9, 2-methyl-3-piperidino-5',6',7',8'-tetrahydro-2'-propionaphthone hydrochloride], the inhibition at 100 µM with Peritoneal cavity cells (Rattus norvegicus, 0.1 mM) was 33.7%.

As to `CCCCCCc1ccc(C(=O)C(C)CN2CCCCC2)cc1` (stereo not shown) [Example 22, 4'-hexyl-2-methyl-3-piperidinopropiophenone hydrochloride], the inhibition at 50 µM with Peritoneal cavity cells (setting [1]) is 82 ± 1.7%. Also, the inhibition at 100 µM in the assay with Peritoneal cavity cells (Rattus norvegicus, 0.1 mM) turned out to be 87.2%.

For the compound `Cc1ccc(C(=O)C(C)CN2CCN(Cc3ccccc3)CC2)cc1` (stereo not shown) [Example 16, 2,4'-dimethyl-3-(4-benzylpiperazino)propiophenone dihydrochloride], in the assay on Peritoneal cavity cells (Rattus norvegicus), the inhibition at 200 µM amounted to 72.4%.

Regarding `COc1ccc(C(=O)C(C)CN2CCCCC2)cc1OC.Cl` (stereo not shown) [Example 7, 3',4'-dimethoxy-2-methyl-3-piperidinopropiophenone hydrochloride], the “ileum contraction inhibiting rate” value in the assay on SRS-A (10^-4 g/ml) is reported as 85.7 ± 0.67%; with SRS-A (10^-5 g/ml) it was 8.3 ± 2.85%; in the assay on SRS-A (10^-6 g/ml), 1.0 ± 1.00%.

As to `Cc1ccc(C(=O)C(C)CN2CCN(CC(C)C)CC2)cc1.Cl.Cl` (stereo not shown) [Example 1, 2,4'-dimethyl-3-(4-isobutylpiperazino)propiophenone dihydrochloride], the “ileum contraction inhibiting rate” value stood at 64.7 ± 7.51% with SRS-A (10^-4 g/ml), 6.7 ± 3.33% in the assay on SRS-A (10^-5 g/ml) and 0 ± 0% with SRS-A (10^-6 g/ml).

On to `CCc1ccc(C(=O)C(C)CN2CCCCC2)cc1CC` (stereo not shown) [Example 34, 3',4'-diethyl-2-methyl-3-piperidinopropiophenone hydrochloride], for which, in the assay with Peritoneal cavity cells (setting [1]), the inhibition at 50 µM turned out to be 29.1 ± 7.5%.

In the case of `COc1ccc(C(=O)C(C)CN2CCCCC2)cc1Cl` (stereo not shown) [Example 49, 3'-chloro-4'-methoxy-2-methyl-3-piperidinopropiophenone hydrochloride], the inhibition at 100 µM in the assay with Peritoneal cavity cells (Rattus norvegicus, 0.1 mM) worked out at 38%.

As for `Cc1ccc(C(=O)C(C)CN(C)C)cc1.Cl` (stereo not shown) [Example 24, 2,4'-dimethyl-3-dimethylaminopropiophenone hydrochloride], the “ileum contraction inhibiting rate” value is recorded as 57.3 ± 5.17% with SRS-A (10^-4 g/ml), 7.7 ± 3.67% in the assay on SRS-A (10^-5 g/ml) and 4.3 ± 2.40% with SRS-A (10^-6 g/ml).

Regarding `CC(CN1CCCCC1)C(=O)c1ccc2c(c1)CCC2` (stereo not shown) [Example 33, 1-(5-indanyl)-2-methyl-3-piperidinopropanone hydrochloride], the inhibition at 50 µM in the assay on Peritoneal cavity cells (setting [1]) came out at 14.4 ± 2.6%.

With `COc1ccc(C(=O)C(C)CN2CCCCC2)cc1.Cl` (stereo not shown) [Example 25, 4'-methoxy-2-methyl-3-piperidinopropiophenone hydrochloride], the “ileum contraction inhibiting rate” value in the assay with SRS-A (10^-4 g/ml) is on record as 80.3 ± 7.22%; in the assay with SRS-A (10^-5 g/ml), 15.0 ± 14.50%; in the assay with SRS-A (10^-6 g/ml) it was 6.7 ± 6.67%.

Turning to `CCOc1ccc(C(=O)C(C)CN2CCCCC2)cc1.Cl` (stereo not shown) [Example 26, 4'-ethoxy-2-methyl-3-piperidinopropiophenone hydrochloride], the entries for the “ileum contraction inhibiting rate” value with SRS-A (10^-4 g/ml), with SRS-A (10^-5 g/ml) and in the assay on SRS-A (10^-6 g/ml) were 86.7 ± 3.84%, 12.3 ± 6.69% and 6.7 ± 5.24%, respectively.

Regarding `Cc1ccc(C(=O)C(C)CN2CCCC2)cc1.Cl` (stereo not shown) [Example 13, 2,4'-dimethyl-3-pyrrolidinopropiophenone hydrochloride], the “ileum contraction inhibiting rate” value in the assay with SRS-A (10^-4 g/ml) was 80.7 ± 6.98%; in the assay with SRS-A (10^-5 g/ml), 2.7 ± 2.67%; in the assay with SRS-A (10^-6 g/ml) it was 1.3 ± 1.33%.

`CC(CN1CCCCC1C)C(=O)c1ccc2ccccc2c1` (stereo not drawn) [Example 28, 2-methyl-3-(2-methylpiperidino)-β-propionaphthone hydrochloride]: the inhibition at 50 µM in the assay on Peritoneal cavity cells (setting [1]) was 18.5 ± 6.5%. Also, the inhibition at 100 µM with Peritoneal cavity cells (Rattus norvegicus, 0.1 mM) is 40.7%.

With `CCCc1ccc(C(=O)C(C)CN2CCCCC2)cc1` (stereo not shown) [Example 36, 4'-n-propyl-2-methyl-3-piperidinopropiophenone hydrochloride], the inhibition at 50 µM with Peritoneal cavity cells (setting [1]) was found to be 23.6 ± 7.7%.

As for `Cc1ccc2cc(C(=O)C(C)CN3CCCCC3)ccc2c1` (stereo not shown) [Example 51, 2,6'-dimethyl-3-piperidino-2'-propionaphthone hydrochloride], in the assay on Peritoneal cavity cells (Rattus norvegicus, 0.1 mM), the inhibition at 100 µM was found to be 37%.

Take `Cc1ccc(C(=O)C(CN2CCCCC2)c2ccccc2)cc1` (stereo not shown) [Example 27, 4'-methyl-2-phenyl-3-piperidinopropiophenone hydrochloride]: the inhibition at 200 µM in the assay on Peritoneal cavity cells (Rattus norvegicus) came to 78.5%.

For the compound `CC1CCN(CC(C)C(=O)c2ccc3ccccc3c2)CC1` (stereo not drawn) [Example 23, 2-methyl-3-(4-methylpiperidino)-β-propionaphthone hydrochloride], the inhibition at 50 µM in the assay with Peritoneal cavity cells (setting [1]) came to 21.4 ± 2.4%. Besides, in the assay with Peritoneal cavity cells (Rattus norvegicus, 0.1 mM), the inhibition at 100 µM came out at 65.8%.

In the case of `COc1ccc2cc(C(=O)C(C)CN3CCCCC3)ccc2c1` (stereo not shown) [Example 40, 6'-methoxy-2-methyl-3-piperidino-2'-propionaphthone hydrochloride], in the assay on Peritoneal cavity cells (Rattus norvegicus, 0.1 mM), the inhibition at 100 µM came to 84%.

In the case of `Cc1ccc(C(=O)CCN2CCCCC2)cc1C` [Example 30, 3',4'-dimethyl-3-piperidinopropiophenone hydrochloride], the inhibition at 50 µM in the assay on Peritoneal cavity cells (setting [1]) worked out at 19.4 ± 7.8%. In the assay on Peritoneal cavity cells (Rattus norvegicus, 0.1 mM), the inhibition at 100 µM came out at 50.3%.

On to `COc1ccc2cc(C(=O)CCN3CCCCC3)ccc2c1` [Example 39, 6'-methoxy-3-piperidino-2'-propionaphthone hydrochloride], for which the inhibition at 100 µM with Peritoneal cavity cells (Rattus norvegicus, 0.1 mM) came to 85%.

`O=C(CCN1CCCCC1)c1ccc2ccccc2c1` [Example 31, 3-piperidino-β-propionaphthone hydrochloride]: in the assay with Peritoneal cavity cells (Rattus norvegicus), the inhibition at 50 µM came out at 53.4 ± 9.1% and the inhibition at 100 µM was determined as 89.6%.

In the case of `CC(CN1CCCCC1)C(=O)c1ccc(Cl)c(Cl)c1` (stereo not shown) [Example 50, 3',4'-dichloro-2-methyl-3-piperidinopropiophenone hydrochloride], the inhibition at 100 µM in the assay with Peritoneal cavity cells (Rattus norvegicus, 0.1 mM) worked out at 73%.

Consider `CC1CCCN(CC(C)C(=O)c2ccc3ccccc3c2)C1` (stereo not drawn) [Example 10, 2-methyl-3-(3-methylpiperidino)-β-propionaphthone hydrochloride], for which the inhibition at 50 µM in the assay with Peritoneal cavity cells (setting [1]) worked out at 18 ± 5.4%. Also, the inhibition at 100 µM with Peritoneal cavity cells (Rattus norvegicus, 0.1 mM) is 49.9%.

For the compound `O=C(O)c1cc(=O)c2c(OCC(O)COc3cccc4oc(C(=O)O)cc(=O)c34)cccc2o1` [DSCG, disodium chromoglicate, reference compound], the Histamine release rate in the assay on Peritoneal cavity cells (0.01 mM) was found to be 36.8%. Further, the Net release rate with Peritoneal cavity cells (0.01 mM, release not caused by antigen-antibody reaction deducted) is on record as 22.9%. Further, in the assay on Peritoneal cavity cells (Rattus norvegicus, 0.01 mM), the inhibition at 10 µM amounted to 30%. In addition, in the assay with Peritoneal cavity cells (setting [1]), the inhibition at 50 µM worked out at 29 ± 6.1%. In addition, the inhibition at 100 µM with Peritoneal cavity cells (Rattus norvegicus, 0.1 mM) stood at 70%.

Turning to `CC(CN1CCC(Cc2ccccc2)CC1)C(=O)c1ccc2ccccc2c1` (stereo not drawn) [Example 29, 2-methyl-3-(4-benzylpiperidino)-β-propionaphthone hydrochloride], the inhibition at 50 µM in the assay with Peritoneal cavity cells (setting [1]) came to 61 ± 3.6%. Also, in the assay on Peritoneal cavity cells (Rattus norvegicus, 0.1 mM), the inhibition at 100 µM was found to be 98.7%.

Turning to `COc1cc(C(=O)C(C)CN2CCCCC2)ccc1O` (stereo not shown) [Example 18, 4'-hydroxy-3'-methoxy-2-methyl-3-piperidinopropiophenone hydrochloride], the inhibition at 200 µM with Peritoneal cavity cells (Rattus norvegicus) was 83.7%.

For the compound `CC(CN1CCCCC1)C(=O)c1cccc2ccccc12` (stereo not drawn) [Example 19, 2-methyl-3-piperidino-α-propionaphthone hydrochloride], in the assay with Peritoneal cavity cells (Rattus norvegicus), the inhibition at 200 µM worked out at 100%.

As to `CCC(CN1CCCCC1)C(=O)c1ccc2ccccc2c1` (stereo not drawn) [Example 32, 2-ethyl-3-piperidino-β-propionaphthone hydrochloride], the inhibition at 50 µM with Peritoneal cavity cells (setting [1]) was 27.2 ± 8.1%. Also, in the assay with Peritoneal cavity cells (Rattus norvegicus, 0.1 mM), the inhibition at 100 µM turned out to be 42%.

For the origin of these results see patent US4277474A, “Treatment of allergic symptoms with propanone derivatives” (Nippon Zoki Pharmaceutical Co., Ltd., priority 1978, dated 1981).
